{
  "source": "patent US6011013A",
  "about": "“Contraceptive compositions and methods” (Oregon Health Sciences University, priority 1998, dated 2000)",
  "key": {"[1]": {"test_system": "bovine caudal epididymal sperm", "assay": "Sperm motility by computer-automated sperm motility analysis (CASMA), Forward Motility Index", "type": "cell-based", "method": "(A) Sperm were incubated in buffer A containing s-Ht31 at 5 μM (circle), 10 μM (square) or 50 μM (diamond) or a control peptide, S-Ht31-P at 50 μM (cross). Motility was assessed at the times indicated by computer-automated sperm motility analysis (CASMA) as described in Experimental Procedures. (B) Sperm were incubated for 5 min in buffer A containing increasing concentrations of S-Ht31 (diamonds) or control peptide S-Ht31-P (triangle) and motility was assessed.\n(A) Bovine caudal epididymal sperm were suspended in buffer A supplemented with 2 mM calcium (+Calcium) or 2 mM EGTA (-Calcium). Motility was assessed by CASMA at 5, 30 and 60 min following addition of either water (control) or 10 μM s-Ht31. (B) Sperm were incubated in buffer A containing 2 mM calcium and 50 mM bicarbonate (where indicated). Motility was assessed at 5, 30 and 60 min following addition of either water (control) or 10 μM s-Ht31.\n(§1) (A). Bovine caudal and caput sperm were incubated in buffer A in the presence or absence of 50 μM CDA and/or 50 μM H-89. When sperm were treated with both CDA and H-89, the H-89 was added 15 min prior to CDA. Motility was assessed by CASMA at 15 min following treatment. (B) Bovine sperm were incubated as described for A and then assessed for PKA activity. Where indicated, 10 μM cAMP was added to the PKA assay.\nSperm Preparation. […]\nSperm Motility Measurement. Head motility parameters were determined as previously described (Vijayaraghavan et al., Biol. Reprod 54:709-718, 1996; Stephens et al., Biol. Reprod. 38:577-586, 1988). […] After bulk fluid movement had subsided, six different locations on the slide were recorded. The videotaped segments were analyzed by a computerized image-analysis system (CASMA) as previously described (Vijayaraghavan et al., Biol. Reprod. 54:709-718, 1996; Stephens et al., Biol. Reprod. 38:577-586, 1988). […] FMI is a product of percent motile (%M, percent of sperm moving at velocity greater than […]) and average velocity (Va, the five-point smoothed average of the head positions through at least 20 of the 30 frames analyzed)."}, "PKA": {"test_system": "PKA", "assay": "PKA activity of sperm treated whole, then washed and lysed", "type": "cell-based, bovine", "conditions": "50 μM", "method": "as §1\nPKA Activity PKA was assayed as previously described (Carr et al., J. Biol. Chem. 268:20729-20732, 1993) with minor changes. Whole caput or caudal sperm were treated with 2-chloro-2-deoxyadenosine (50 μM), H-89 (50 μM), or both for 30 min. at 37° C. The sperm were then washed twice in ice cold homogenization buffer supplemented with protease inhibitors, benzamidine (10 mM), leupeptin (4 μg/ml), and N-tosyl-L-phenylalanine chloromethyl ketone (TPCK) (100 μM), and sonicated for one min. Reaction mixtures (20 uL total) contained 250 μM kemptide, 250 μM (γ-^32 P)ATP, 25 mM Na3 VO4, 50 mM 3-[N-morpholino]propanesulfonic acid (MOPS) (pH=7.0), 10 mM MgCl2, 0.25 mg/ml BSA and where indicated, 10 μM cAMP. Assays were initiated by addition of labeled ATP, incubated for 2 min at 30° C., and stopped by addition of 30 μL of 1N HCl. […] The papers were then analyzed by Cerenkov counting. […]"}, "bovine caput sperm": {"test_system": "bovine caput sperm", "assay": "Caput sperm motility by CASMA", "type": "cell-based", "conditions": "50 μM H-89 added 15 min prior to 50 μM CDA", "method": "(A). Bovine caudal and caput sperm were incubated in buffer A in the presence or absence of 50 μM CDA and/or 50 μM H-89. When sperm were treated with both CDA and H-89, the H-89 was added 15 min prior to CDA. Motility was assessed by CASMA at 15 min following treatment. (B) Bovine sperm were incubated as described for A and then assessed for PKA activity. Where indicated, 10 μM cAMP was added to the PKA assay. Sperm Preparation. Testes from mature bulls with intact tunica were obtained from a local slaughter house and sperm from caput or caudal epididymis were isolated and washed as previously described (Vijayaraghavan et al., Biol. Reprod. 32:489-500, 1985). […] Head motility parameters were determined as previously described (Vijayaraghavan et al., Biol. Reprod 54:709-718, 1996; Stephens et al., Biol. Reprod. 38:577-586, 1988). […] After bulk fluid movement had subsided, six different locations on the slide were recorded. The videotaped segments were analyzed by a computerized image-analysis system (CASMA) as previously described (Vijayaraghavan et al., Biol. Reprod. 54:709-718, 1996; Stephens et al., Biol. Reprod. 38:577-586, 1988). […] FMI is a product of percent motile (%M, percent of sperm moving at velocity greater than […]) and average velocity (Va, the five-point smoothed average of the head positions through at least 20 of the 30 frames analyzed)."}, "sperm": {"test_system": "sperm", "type": "cell-based, bovine", "method": "To determine if S-Ht31 affects sperm viability or structural integrity, the vital dyes SYBR-green and rhodamine 123 were added to sperm before and after treatment with S-Ht31. Only viable, intact cells take up these dyes."}},
  "data": [
    {"molecule": "Nc1nc(Cl)nc2c1ncn2[C@H]1C[C@H](O)[C@@H](CO)O1", "note": "[CDA, 2-chloro-2-deoxyadenosine]", "values": [
      {"measurement": "sperm motility under conditions where sperm PKA is inhibited", "setting": "[1]; with H-89", "value": "still induce or stimulate sperm motility"},
      {"measurement": "increase of basal PKA activity", "setting": "PKA; both caudal and caput sperm, absence of cAMP", "value": "approximately 60%"}
    ]},
    {"molecule": "O=S(=O)(NCCNCC=Cc1ccc(Br)cc1)c1cccc2cnccc12", "note": "[H-89, N-[2-(p-bromocinnamylamino)ethyl]-5-isoquinoline-sulfonamide]", "values": [
      {"measurement": "effect of preincubation on motility induction by CDA in caput sperm", "setting": "bovine caput sperm", "value": "unaffected"},
      {"measurement": "effect on sperm motility stimulated by CDA", "setting": "[1]; 50 μM H-89, 50 μM CDA", "value": "had no effect"},
      {"measurement": "inhibition at 50 µM", "setting": "[1]; Bos taurus, Sperm, 50 μM, read-out: inhibition of basal sperm motility", "value": "≤ 50", "unit": "%"},
      {"measurement": "effect on cellular PKA activity", "setting": "PKA; sperm washed before lysis", "value": "strongly inhibited PKA activity"}
    ]},
    {"molecule": "C[C@@H]1CC[C@@]2(OC1)O[C@H]1[C@@H](O)[C@H]3[C@@H]4CC[C@H]5C[C@@H](O[C@@H]6O[C@H](CO)[C@H](O[C@@H]7O[C@H](CO)[C@@H](O)[C@H](O[C@@H]8OC[C@@H](O)[C@H](O)[C@H]8O)[C@H]7O[C@@H]7O[C@H](CO)[C@H](O)[C@H](O[C@@H]8O[C@H](CO)[C@@H](O)[C@H](O)[C@H]8O)[C@H]7O)[C@H](O)[C@H]6O)[C@H](O)C[C@]5(C)[C@H]4CC[C@]3(C)[C@H]1[C@@H]2C", "note": "[digitonin]", "values": [
      {"measurement": "release of dyes from sperm loaded with BCECF or Fura 2 (plasma membrane integrity)", "setting": "sperm", "value": "caused release of these dyes"}
    ]},
    {"molecule": "CCCCCCCCCCCCCCCCCC(=O)N[C@@H](CC(=O)O)C(=O)N[C@@H](CC(C)C)C(=O)N[C@H](C(=O)N[C@@H](CCC(=O)O)C(=O)N[C@@H](CCC(=O)O)C(=O)N[C@@H](C)C(=O)N[C@@H](C)C(=O)N[C@@H](CO)C(=O)N[C@@H](CCCNC(=N)N)C(=O)N[C@H](C(=O)N[C@H](C(=O)N[C@@H](CC(=O)O)C(=O)N[C@@H](C)C(=O)N[C@H](C(=O)N[C@H](C(=O)N[C@@H](CCC(=O)O)C(=O)N[C@@H](CCC(N)=O)C(=O)N[C@H](C(=O)N[C@@H](CCCCN)C(=O)N[C@@H](C)C(=O)N[C@@H](C)C(=O)NCC(=O)N[C@@H](C)C(=O)N[C@@H](Cc1ccc(O)cc1)C(=O)O)C(C)C)[C@@H](C)CC)C(C)C)C(C)C)[C@@H](C)CC)[C@@H](C)CC", "note": "[s-Ht31]", "values": [
      {"measurement": "release of dyes from sperm loaded with BCECF or Fura 2 (plasma membrane integrity)", "setting": "sperm", "value": "did not compromise the integrity of the plasma membrane"},
      {"measurement": "sperm viability and plasma membrane integrity (uptake of vital dyes SYBR-green and rhodamine 123)", "setting": "sperm", "value": "did not decrease viability or disrupt the integrity of the sperm plasma membrane"}
    ]}
  ]
}
